Test results taken from patent US20220356174A1, “PYRIDIN-2-ONE COMPOUNDS USEFUL AS SMARCA2 ANTAGONISTS” (Epizyme, Inc., priority 2018, published 2022).
Where two headings read alike, the source gives them in different places.

Assays:
[1] = target: T1, FL-SMARCA2 (full-length human SMARCA2 isoform 1) (Homo sapiens, UniProt P51531); assay: SMARCA2 ATPase activity assay (ADP-Glo, chicken mononucleosome substrate); type: biochemical; details: ATPase assay, enzyme 5 nM, ATP 250 uM, chicken mononucleosome 10 nM, 30 min preincubation
T1 construct: FLAG tag (YKDDDDK) (C); made in house; host or cells: Sf21 insect cells (baculovirus, pFastBacI)

A549 cells = assay: High-throughput proliferation (HTP) assay for A549 cells (CellTiter-Glo, 7 days); type: cell-based; details: Homo sapiens, 168 h, read-out: A549 SMARCA2 IC50
Summary of the method: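 A549 cells plated at 62.5 cells/well in F12K + 10% HI-FBS onto pre-dispensed compound, grown 7 days at 37° C., 5% CO2. Viability by CellTiter-Glo luminescence after 30 min at RT; EC50/IC50 from DMSO (0%) and 10 μM Doxorubicin (100%) inhibition controls.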

H358 cells = assay: High-throughput proliferation (HTP) assay for H358 cells (CellTiter-Glo, 7 days); type: cell-based; details: Homo sapiens, NCI-H358, 168 h, read-out: H358 SMARCA2 IC50
Protocol: Thawing vials: H358 cells (ATCC #CRL-5807™) were thawed from a cryovial containing approximately 1.6×10^6 cells frozen in 70% RPMI 1640 medium, 20% HI-FBS and 10% DMSO. Cells were thawed by submerging the bottom half of the vial in a 37° C. water bath and gently flicked until almost thawed. The cells were removed and transferred into a 15 mL conical tube containing 9 mL RPMI 1640 medium+10% HI-FBS and then centrifuged 200×g for 4 min before drawing off the media without disturbing the cell pellet to remove the DMSO. The cells were resuspended again in 15 mL of RPMI 1640 fresh complete media+10% HI-FBS and grown up in a T75 flask at 37° C. with 5% CO2 Incubator. Viability was measured to obtain baseline.
Preparing frozen stock vials: Cell density was counted in a stock flask. The culture was transferred to a 50 mL conical tube and spun down to remove medium, and then resuspend at 1-2×10^6 cells/mL in complete medium containing 10% DMSO and transferred to a 1 mL per vial.
Routine subculture: Sub-confluent cultures (70-80%) were split every 4 days, seeding out at 1-2×10^6 cells/75 cm^2.
Day 0: Assay ready plates were prepared by dispensing 50 nL of compound stock or DMSO in the appropriate wells of 384-well white CulturPlates using Echo550. Using the Multiflo, H358 cells at 50 μL/well were plated in RPMI 1640 complete media+10% HI-FBS+1% pen/strep at cell density determined [20,000 cells/mL (1,000 cells/well)] from growth curve. Treated cells were inclubated at 37° C., 5% CO2, relative humidity >90% for 7 days. CellTiter-Glo (CTG) ATP detection reagent was prepared according to manufacturer's specifications. Cell assay plates were removed from incubator and bring to room temperature (RT).
Using the MultiDrop liquid handler, 30 μL of CTG were added per well. Plates were placed on the multidrop dispenser shake for 5 seconds at RT. Plates were incubated for 30 minutes in the dark at RT before measuring luminescence using the Envison2104.
Data analysis: Using the DMSO control wells as the 0% inhibition (high signal) control and the 10 uM Doxorubicin control wells as the 100% inhibition (low signal) control, percent inhibition EC50s (inflection point) and IC50s were calculated for the compound dose responses.

FL-SMARCA4 = FL-SMARCA4 (Homo sapiens, UniProt P51532); assay: SMARCA4 ATPase activity assay (ADP-Glo, chicken mononucleosome substrate)
[2] = FL-SMARCA4 IC>50, Table 3c.2, ATPase assay, enzyme 5 nM, ATP 250 uM, chicken mononucleosome 10 nM, 30 min preincubation
[3] = Table 3d.1, read-out: FL-SMARCA2 IC>50

Sequence of FL-SMARCA4 (P51532 whole entry): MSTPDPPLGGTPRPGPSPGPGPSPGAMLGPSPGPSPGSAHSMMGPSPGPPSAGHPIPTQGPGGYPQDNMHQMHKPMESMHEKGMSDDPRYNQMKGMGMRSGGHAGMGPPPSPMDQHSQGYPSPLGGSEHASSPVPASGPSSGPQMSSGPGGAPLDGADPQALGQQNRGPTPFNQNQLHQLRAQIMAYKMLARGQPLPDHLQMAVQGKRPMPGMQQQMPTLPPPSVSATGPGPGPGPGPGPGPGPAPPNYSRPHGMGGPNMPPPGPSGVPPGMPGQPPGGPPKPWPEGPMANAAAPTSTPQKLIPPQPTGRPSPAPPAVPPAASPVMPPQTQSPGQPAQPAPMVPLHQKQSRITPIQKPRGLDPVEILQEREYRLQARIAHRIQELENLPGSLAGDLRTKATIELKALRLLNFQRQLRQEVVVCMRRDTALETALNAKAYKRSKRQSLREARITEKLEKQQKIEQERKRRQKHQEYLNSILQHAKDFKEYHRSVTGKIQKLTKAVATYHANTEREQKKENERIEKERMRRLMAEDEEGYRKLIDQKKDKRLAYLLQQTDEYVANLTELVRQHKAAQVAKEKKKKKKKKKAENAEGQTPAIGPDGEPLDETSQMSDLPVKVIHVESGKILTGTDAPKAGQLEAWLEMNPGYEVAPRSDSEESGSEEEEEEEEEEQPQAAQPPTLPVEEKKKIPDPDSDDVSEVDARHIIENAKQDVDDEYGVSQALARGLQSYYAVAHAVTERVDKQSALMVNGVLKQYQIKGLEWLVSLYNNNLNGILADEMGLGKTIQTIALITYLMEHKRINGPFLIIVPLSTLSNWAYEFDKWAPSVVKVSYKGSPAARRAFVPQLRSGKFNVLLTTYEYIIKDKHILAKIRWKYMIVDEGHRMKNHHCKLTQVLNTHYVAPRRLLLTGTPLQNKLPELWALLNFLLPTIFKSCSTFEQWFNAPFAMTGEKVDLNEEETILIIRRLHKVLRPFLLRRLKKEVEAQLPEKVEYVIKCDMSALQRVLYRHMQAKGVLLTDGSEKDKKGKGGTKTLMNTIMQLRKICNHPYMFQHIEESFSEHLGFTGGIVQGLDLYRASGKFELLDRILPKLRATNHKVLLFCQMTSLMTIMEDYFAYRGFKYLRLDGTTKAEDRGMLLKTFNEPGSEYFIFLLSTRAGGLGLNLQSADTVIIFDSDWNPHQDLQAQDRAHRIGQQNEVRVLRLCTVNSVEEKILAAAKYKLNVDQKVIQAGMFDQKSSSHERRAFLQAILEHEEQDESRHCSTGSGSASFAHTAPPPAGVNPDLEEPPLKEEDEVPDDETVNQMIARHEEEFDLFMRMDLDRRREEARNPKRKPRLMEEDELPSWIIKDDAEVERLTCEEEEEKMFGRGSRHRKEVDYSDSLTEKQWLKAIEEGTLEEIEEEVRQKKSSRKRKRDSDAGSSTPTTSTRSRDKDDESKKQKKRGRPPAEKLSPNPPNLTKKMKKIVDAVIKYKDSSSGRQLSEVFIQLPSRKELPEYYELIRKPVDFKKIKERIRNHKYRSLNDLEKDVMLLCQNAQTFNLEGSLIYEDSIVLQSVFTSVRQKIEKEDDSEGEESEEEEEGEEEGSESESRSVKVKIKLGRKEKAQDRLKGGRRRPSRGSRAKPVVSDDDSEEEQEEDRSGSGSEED
T1 sequence (P51531 with tags, fused parts or gaps): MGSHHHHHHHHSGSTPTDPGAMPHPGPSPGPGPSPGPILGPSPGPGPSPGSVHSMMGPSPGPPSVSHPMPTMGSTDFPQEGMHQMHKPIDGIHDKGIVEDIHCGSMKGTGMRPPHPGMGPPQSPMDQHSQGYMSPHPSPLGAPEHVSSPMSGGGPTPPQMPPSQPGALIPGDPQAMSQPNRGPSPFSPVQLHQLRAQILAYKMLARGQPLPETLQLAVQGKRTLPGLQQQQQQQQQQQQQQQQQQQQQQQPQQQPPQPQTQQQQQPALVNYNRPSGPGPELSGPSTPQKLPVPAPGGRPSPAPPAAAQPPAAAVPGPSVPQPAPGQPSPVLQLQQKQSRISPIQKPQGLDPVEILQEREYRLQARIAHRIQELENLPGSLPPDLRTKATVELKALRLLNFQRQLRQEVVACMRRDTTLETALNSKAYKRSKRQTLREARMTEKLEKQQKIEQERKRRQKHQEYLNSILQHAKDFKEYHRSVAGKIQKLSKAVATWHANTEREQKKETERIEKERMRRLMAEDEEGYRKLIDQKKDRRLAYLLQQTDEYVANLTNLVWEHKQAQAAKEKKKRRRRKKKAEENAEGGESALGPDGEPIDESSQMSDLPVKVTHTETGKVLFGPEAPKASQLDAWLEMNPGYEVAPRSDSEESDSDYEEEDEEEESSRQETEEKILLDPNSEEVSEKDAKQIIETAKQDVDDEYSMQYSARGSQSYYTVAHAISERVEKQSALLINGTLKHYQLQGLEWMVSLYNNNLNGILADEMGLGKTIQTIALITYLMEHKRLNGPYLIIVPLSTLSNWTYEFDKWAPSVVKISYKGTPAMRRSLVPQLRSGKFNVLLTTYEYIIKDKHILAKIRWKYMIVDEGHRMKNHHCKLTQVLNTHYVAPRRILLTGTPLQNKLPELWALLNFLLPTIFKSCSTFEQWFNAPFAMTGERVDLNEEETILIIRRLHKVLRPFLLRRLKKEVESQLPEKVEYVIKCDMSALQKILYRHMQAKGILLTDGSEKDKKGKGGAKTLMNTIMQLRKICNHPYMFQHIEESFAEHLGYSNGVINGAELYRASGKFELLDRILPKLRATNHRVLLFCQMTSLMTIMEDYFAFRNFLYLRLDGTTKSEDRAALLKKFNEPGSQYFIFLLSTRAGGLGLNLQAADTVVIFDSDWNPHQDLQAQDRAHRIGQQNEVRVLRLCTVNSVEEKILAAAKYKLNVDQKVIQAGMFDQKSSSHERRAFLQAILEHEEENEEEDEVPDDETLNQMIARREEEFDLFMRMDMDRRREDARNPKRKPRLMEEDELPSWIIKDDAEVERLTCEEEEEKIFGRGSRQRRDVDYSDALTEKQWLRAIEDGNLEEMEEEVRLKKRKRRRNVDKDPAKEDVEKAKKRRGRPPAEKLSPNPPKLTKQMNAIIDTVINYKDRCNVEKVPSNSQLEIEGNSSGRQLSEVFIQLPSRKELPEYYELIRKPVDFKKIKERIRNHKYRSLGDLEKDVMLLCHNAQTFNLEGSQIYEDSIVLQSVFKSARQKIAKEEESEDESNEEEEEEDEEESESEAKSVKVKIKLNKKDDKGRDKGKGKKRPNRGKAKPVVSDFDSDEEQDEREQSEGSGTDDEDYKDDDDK

Row | SMILES | IC50 ([1]; Table 3c.1) [nM] | IC50 (A549 cells) [nM] | IC50 (H358 cells) [nM] | IC50 (FL-SMARCA4; [2]) [nM] | IC50 [1, 3] [nM] | IC50 (FL-SMARCA4; FL-SMARCA4 IC50) [nM] | IC50 ([1]; Table 3.1) [nM] | IC50 (FL-SMARCA4; FL-SMARCA4 IC50, Table 3.2, ATPase assay, enzyme 5 nM, ATP 250 uM, chicken mononucleosome 10 nM, 30 min preincubation) [nM]
1 | O=C(Nc1cc(F)c(=O)n(CC(F)F)c1)c1cc(C#CC2CCNC2)c(Cl)s1 (stereo not drawn) [Compound 106d] | – | > 10000 | > 10000 | – | 2180 | 5630 | – | –
2 | O=C(Nc1cc(F)c(=O)n(CC(F)F)c1)c1cc(OC(F)(F)F)c(C(F)(F)F)s1 [Compound 89d] | – | 5620 | > 10000 | – | 187 | 2070 | – | –
3 | O=C(Nc1cc(F)c(=O)n(CC(F)F)c1)c1cc(-c2ccco2)on1 [Compound 124d] | – | > 10000 | > 10000 | – | > 50000 | > 50000 | – | –
4 | O=C(Nc1ccc(=O)n(CC(F)F)c1)c1cc(Cl)c(C(F)(F)F)s1 [Compound 72c] | 210 | 4500 | > 10000 | 1550 | – | – | – | –
5 | O=C(Nc1cc(F)c(=O)n(CC(F)F)c1)c1cc(C#Cc2cccc(Cl)c2)c(Cl)s1 [Compound 56c] | 297 | 4400 | 9020 | 1040 | – | – | – | –
6 | CN1CCn2cc(C#Cc3cc(C(=O)Nc4cc(F)c(=O)n(CC(F)F)c4)sc3Cl)nc2C1 [Compound 146c] | 9540 | > 10000 | > 10000 | 15300 | – | – | – | –
7 | CN1CCCC(C#Cc2sc(C(=O)Nc3cc(F)c(=O)n(CC(F)F)c3)cc2Cl)C1 (stereo not drawn) [Compound 132d] | – | 7980 | > 10000 | – | > 50000 | > 50000 | – | –
8 | O=C(Nc1cc(F)c(=O)n(CC(F)F)c1)c1cc(C#Cc2cncnc2)c(Cl)s1 [Compound 346] | – | 5240 | > 10000 | – | – | – | 181 | 606
9 | O=C(Nc1cc(F)c(=O)n(CC(F)F)c1)c1cc(C#CC2CCCN2)c(Cl)s1 (stereo not drawn) [Compound 107d] | – | > 10000 | > 10000 | – | 572 | 1540 | – | –
10 | Cc1cc(C(=O)Nc2cc(F)c(=O)n(CC(F)F)c2)sc1C(F)(F)F [Compound 80d] | – | > 10000 | > 10000 | – | 224 | 1140 | – | –
11 | O=C(O)c1cccc(C#Cc2cc(C(=O)Nc3cc(F)c(=O)n(CC(F)F)c3)sc2Cl)c1 [Compound 131c] | 8.68 | > 10000 | > 10000 | 13.7 | – | – | – | –
12 | N#Cc1cc(C(=O)Nc2cc(F)c(=O)n(CC3(F)CC3)c2)sc1C(F)(F)F [Compound 85d] | – | 4170 | > 10000 | – | 104 | 596 | – | –
13 | Cn1ccc(C#Cc2cc(C(=O)Nc3cc(F)c(=O)n(CC(F)F)c3)sc2Cl)cc1=O [Compound 65d] | – | > 10000 | > 10000 | – | 2360 | 7790 | – | –
14 | O=C(Nc1cc(F)c(=O)n(CC(F)F)c1)c1cc(C#CCn2cnnc2)c(Cl)s1 [Compound 126d] | – | > 10000 | > 10000 | – | 1580 | 4370 | – | –
15 | Cc1cnc(C#Cc2cc(C(=O)Nc3cc(F)c(=O)n(CC(F)F)c3)sc2Cl)s1 [Compound 70c] | 260 | 6250 | 9160 | 385 | – | – | – | –
16 | NCc1nc(C#Cc2cc(C(=O)Nc3cc(F)c(=O)n(CC(F)F)c3)sc2Cl)cs1 [Compound 125c] | 52.2 | 4460 | > 10000 | 166 | – | – | – | –
17 | CN1CC(C#Cc2cc(C(=O)Nc3cc(F)c(=O)n(CC(F)F)c3)sc2Cl)CC1=O (stereo not drawn) [Compound 113d] | – | > 10000 | > 10000 | – | 967 | 2880 | – | –
18 | O=C(Nc1cc(F)c(=O)n(CC(F)F)c1)c1cc(C#CC2CCS(=O)(=O)CC2)c(Cl)s1 [Compound 99d] | – | 6680 | > 10000 | – | 195 | 244 | – | –
19 | O=C(Nc1cc(F)c(=O)n(CC(F)F)c1)c1cc(C#CCn2cncn2)c(Cl)s1 [Compound 127d] | – | > 10000 | > 10000 | – | 586 | 1450 | – | –
20 | O=C(Nc1cc(F)c(=O)n(CC(F)F)c1)c1cc(/C=C/c2cccnc2)c(Cl)s1 [Compound 95c] | 603 | > 10000 | > 10000 | 5710 | – | – | – | –
21 | Cn1cc(C#Cc2cc(C(=O)Nc3cc(C#N)c(=O)n(CC(F)F)c3)sc2Cl)cn1 [Compound 93d] | – | 3930 | > 10000 | – | 43.1 | 147 | – | –
22 | O=C(Nc1cc(F)c(=O)n(CC(F)F)c1)c1cc(C#Cc2ccc3cncn3c2)c(Cl)s1 [Compound 96d] | – | 4440 | > 10000 | – | 38.1 | 97.3 | – | –
23 | O=C(Nc1cc(F)c(=O)n(CC(F)F)c1)c1cc(C#Cc2ccccc2)c(Cl)s1 [Compound 41c] | 82.7 | 4270 | > 10000 | 250 | – | – | – | –

The next compounds have a lower IC50 (A549 cells) than those just listed; values first:

Row | IC50 ([1]; Table 3c.1) [nM] | IC50 (A549 cells) [nM] | IC50 (H358 cells) [nM] | IC50 (FL-SMARCA4; [2]) [nM] | IC50 [1, 3] [nM] | IC50 (FL-SMARCA4; FL-SMARCA4 IC50) [nM] | IC50 ([1]; Table 3.1) [nM] | IC50 (FL-SMARCA4; FL-SMARCA4 IC50, Table 3.2, ATPase assay, enzyme 5 nM, ATP 250 uM, chicken mononucleosome 10 nM, 30 min preincubation) [nM] | SMILES
24 | – | 3810 | > 10000 | – | 165 | 498 | – | – | N#Cc1cncc(C#Cc2cc(C(=O)Nc3cc(F)c(=O)n(CC(F)F)c3)sc2Cl)c1 [Compound 64d]
25 | – | 3740 | > 10000 | – | 166 | 285 | – | – | O=C(Nc1cc(F)c(=O)n(CC(F)F)c1)c1cc(C#CC2OCCCO2)c(Cl)s1 [Compound 101d]
26 | – | 3240 | 4050 | – | > 50000 | > 50000 | – | – | Cn1cc(C#Cc2cc(C(=O)Nc3cc([N+](=O)[O-])c(=O)n(CC(F)F)c3)sc2C(F)(F)F)cn1 [Compound 128d]
27 | 99.5 | 2830 | > 10000 | 259 | – | – | – | – | O=C(Nc1cc(F)c(=O)n(CC(F)F)c1)c1cc(C#Cc2cnccn2)c(Cl)s1 [Compound 40c]
28 | – | 2380 | 4090 | – | 536 | 1260 | – | – | CN(C)C(=O)C#Cc1cc(C(=O)Nc2cc(F)c(=O)n(CC(F)F)c2)sc1Cl [Compound 71d]
29 | – | 2380 | > 10000 | – | 160 | 334 | – | – | O=C(Nc1cc(F)c(=O)n(CC(F)F)c1)c1cc(C#CC23CC(CO)(C2)C3)c(Cl)s1 [Compound 135d]
30 | – | 1990 | > 10000 | – | 31.3 | 155 | – | – | Cc1cc(C#Cc2cc(C(=O)Nc3cc(C#N)c(=O)n(CC(F)F)c3)sc2Cl)sn1 [Compound 92d]
31 | 5.22 | 1820 | 1490 | 6.99 | – | – | – | – | N#Cc1nc(C#Cc2cc(C(=O)Nc3cc(F)c(=O)n(CC(F)F)c3)sc2Cl)cs1 [Compound 117c]
32 | 20.1 | 1680 | > 10000 | 69.1 | – | – | – | – | Cn1ccc(C#Cc2cc(C(=O)Nc3cc(F)c(=O)n(CC(F)F)c3)sc2Cl)n1 [Compound 144c]
33 | 93.8 | 1460 | > 10000 | 233 | – | – | – | – | N#Cc1cccc(C#Cc2cc(C(=O)Nc3cc(F)c(=O)n(CC(F)F)c3)sc2Cl)c1 [Compound 34c]
34 | – | 1330 | > 10000 | – | 18.8 | 58.7 | – | – | O=C(Nc1cc(F)c(=O)n(CC(F)F)c1)c1cc(C#C[C@H]2C[C@@H](CO)C2)c(Cl)s1 [Compound 134d]
35 | 132 | 1190 | 2030 | 379 | – | – | – | – | O=C(Nc1cc(F)c(=O)n(CC(F)F)c1)c1cc(C#Cc2ccncn2)c(Cl)s1 [Compound 59c]
36 | 30.1 | 664 | > 10000 | 60.8 | – | – | – | – | O=C(Nc1cc(F)c(=O)n(CC(F)F)c1)c1cc(C#CC2CCOCC2)c(Cl)s1 [Compound 22c]
